Measurements reported in patent EP0574992A1, “5-(1,2,4-Triazol-1-ylmethyl)-3H-isobenzofuran-1-one derivatives, their preparation and use as aromatase inhibitors” (GLAXO GROUP LIMITED, priority 1992, dated 1993).

Legend:
[1] = target: T1, human placental aromatase (Homo sapiens, UniProt P11511); assay: Human placental aromatase assay ([3H]-H2O release), in vitro; assay type: biochemical; settings: 1 mM NADPH, read-out: Aromatase inhibitory activity - in vitro IC₅₀
T1 construct: Human placental aromatase was assayed according to the method of Thomson and Siiteri; from tissue; host or cells: human placenta
T1 sequence (P11511 1-503): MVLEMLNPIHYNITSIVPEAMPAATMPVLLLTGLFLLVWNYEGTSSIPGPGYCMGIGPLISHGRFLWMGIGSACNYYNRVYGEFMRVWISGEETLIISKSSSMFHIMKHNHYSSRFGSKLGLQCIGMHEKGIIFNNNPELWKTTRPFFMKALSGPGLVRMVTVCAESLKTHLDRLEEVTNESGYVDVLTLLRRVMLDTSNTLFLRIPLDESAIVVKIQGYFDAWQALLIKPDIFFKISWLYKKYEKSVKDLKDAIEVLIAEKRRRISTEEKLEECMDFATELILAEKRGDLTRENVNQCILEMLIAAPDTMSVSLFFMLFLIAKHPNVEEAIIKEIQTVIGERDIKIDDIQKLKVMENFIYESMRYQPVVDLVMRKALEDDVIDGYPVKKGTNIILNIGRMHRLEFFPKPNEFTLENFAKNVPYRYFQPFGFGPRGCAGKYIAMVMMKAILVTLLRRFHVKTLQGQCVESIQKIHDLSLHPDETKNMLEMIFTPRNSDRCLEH
Procedure: Aromatase inhibitory activity may be determined using human placental aromatase.
Human placental aromatase was assayed according to the method of Thomson and Siiteri, Hormone Res. (1979) 11:179-185, except that the assay buffer contained 1 mM NADPH instead of the NADPH-generating system. [³H]-H₂O, released as a by-product of aromatization, was separated from substrate using C18 mini-columns.

mouse = assay: Acute toxicity study, single oral doses; assay type: in vivo; settings: single doses up to 2g/kg p.o.

Row | Structure (SMILES) | IC50 [1] | Acute toxicity (tolerability) (mouse)
1 | CC1(C)OC(=O)c2ccc(C(c3ccc([N+](=O)[O-])cc3)n3cncn3)cc21 (stereo not shown) [Example 5, 5-[(4-Nitrophenyl)-1,2,4-triazol-1-ylmethyl]-3,3-dimethyl-3H-isobenzofuran-1-one] | 51 nM | 
2 | CC1(C)OC(=O)c2ccc(C(c3c(F)cc([N+](=O)[O-])cc3F)n3cncn3)cc21 (racemic) [Example 1, 5-[(2,6-Difluoro-4-nitrophenyl)-1,2,4-triazol-1-ylmethyl]-3,3-dimethyl-3H-isobenzofuran-1-one] | 15 nM | well tolerated
3 | CC1(C)OC(=O)c2ccc(C(c3ccc([N+](=O)[O-])cc3F)n3cncn3)cc21 (stereo not shown) [Example 2, 5-[(2-Fluoro-4-nitrophenyl)-1,2,4-triazol-1-ylmethyl]-3,3-dimethyl-3H-isobenzofuran-1-one] | 63 nM | 
4 | CC1(C)OC(=O)c2ccc(C(c3c(F)cc(C#N)cc3F)n3cncn3)cc21 (stereo not shown) [Example 3, 4-[(3.3-Dimethyl-1-oxo-1,3-dihydro-isobenzofuran-5-yl)-1,2,4-triazol-1-ylmethyl]-3,5-difluorobenzonitrile] | 24 nM | 

More lines, main results first:

Row | IC50 [1] | Structure (SMILES) | Acute toxicity (tolerability) (mouse)
5 | 73 nM | CC1(C)OC(=O)c2ccc(C(c3ccc(C#N)cc3)n3cncn3)cc21 (racemic) [Example 7, 4-[(3,3-Dimethyl-1-oxo-1,3-dihydro-isobenzofuran-5-yl)-1,2,4-triazol-1 - ylmethyl]-benzonitrile] | 
6 | 83 nM | CC1(C)OC(=O)c2ccc(C(c3ccc(C#N)cc3F)n3cncn3)cc21 (stereo not shown) [Example 6, 4-[(3,3-Dimethyl-1-oxo-1,3-dihydro-isobenzofuran-5-yl)-1,2,4-triazol-1 - ylmethyl]-3-fluorobenzonitrile] | 
